Experimental data published in PubChem BioAssay AID1919004 (Molecular Pharmacology Branch, DTP, NCI, 2023).

Test system: 883617-216-R-J1-PDC complex spheroids, growth, % test/control
Test: Anticancer human tumor 883617-216-R-J1-PDC patient-derived bladder carcinoma cell line growth inhibition [AhR]
Conditions: for IC50: curve of first compound; for viability, T/C: stronger effect = lower value
In short: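 Spheroids combined tumor cells with HUVEC endothelial cells and human MSCs as stroma. AhR antagonists were paired with standard or investigational drugs, each dosed in half-log steps down from near clinical Cmax, or from 10 microM where Cmax was unknown.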
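Note: exposure lasted 7 days after dosing on day 3 of spheroid growth.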

Q: For `CC1COCCN1c1cc(-c2ccnn2C)c2ccnc(-c3ccn[nH]3)c2n1` (stereo not given) + CC(CO)NC(=O)c1cc(-c2ccc(Cl)cc2)nn(-c2cnn(C)c2)c1=O, which IC50 (second compound 0.1 µM) is on record?
A: > 1000 nM

Q: What about the IC50 (second compound 0.316 µM) of the same compound?
A: > 1000 nM

Q: And the IC50 (second compound 1 µM)?
A: > 1000 nM

Q: What about the IC50 (second compound 3.16 µM) of the same compound?
A: > 1000 nM

Q: What about the IC50 (second compound 10 µM) of the same compound?
A: > 1000 nM

Q: What about the viability, T/C (second compound 0.1 µM, first compound 0.00316 µM) of the same compound?
A: 70.5%

Q: And the viability, T/C (second compound 0.1 µM, first compound 0.01 µM)?
A: 80.7%

Q: What about the viability, T/C (second compound 0.1 µM, first compound 0.0316 µM) of the same compound?
A: 55.6%

Q: What about the viability, T/C (second compound 0.1 µM, first compound 0.1 µM) of the same compound?
A: 87.4%

Q: What about the viability, T/C (second compound 0.1 µM, first compound 0.316 µM) of the same compound?
A: 73.9%

Q: What about the viability, T/C (second compound 0.1 µM, first compound 1 µM) of the same compound?
A: 56.8%

Q: And the viability, T/C (second compound 0.316 µM, first compound 0.00316 µM)?
A: 80.9%

Q: What about the viability, T/C (second compound 0.316 µM, first compound 0.01 µM) of the same compound?
A: 85.6%

Q: And the viability, T/C (second compound 0.316 µM, first compound 0.0316 µM)?
A: 88.2%

Q: What about the viability, T/C (second compound 0.316 µM, first compound 0.1 µM) of the same compound?
A: 63.8%

Q: And the viability, T/C (second compound 0.316 µM, first compound 0.316 µM)?
A: 48.5%

Q: What about the viability, T/C (second compound 0.316 µM, first compound 1 µM) of the same compound?
A: 53.1%

Q: What about the viability, T/C (second compound 1 µM, first compound 0.00316 µM) of the same compound?
A: 88.8%

Q: And the viability, T/C (second compound 1 µM, first compound 0.01 µM)?
A: 82.5%

Q: What about the viability, T/C (second compound 1 µM, first compound 0.0316 µM) of the same compound?
A: 114%

Q: What about the viability, T/C (second compound 1 µM, first compound 0.1 µM) of the same compound?
A: 100%

Q: What about the viability, T/C (second compound 1 µM, first compound 0.316 µM) of the same compound?
A: 53.5%

Q: And the viability, T/C (second compound 1 µM, first compound 1 µM)?
A: 54%

Q: What about the viability, T/C (second compound 3.16 µM, first compound 0.00316 µM) of the same compound?
A: 58.3%

Q: And the viability, T/C (second compound 3.16 µM, first compound 0.01 µM)?
A: 69.8%

Q: What about the viability, T/C (second compound 3.16 µM, first compound 0.0316 µM) of the same compound?
A: 72.8%

Q: And the viability, T/C (second compound 3.16 µM, first compound 0.1 µM)?
A: 73.2%

Q: What about the viability, T/C (second compound 3.16 µM, first compound 0.316 µM) of the same compound?
A: 61.7%

Q: What about the viability, T/C (second compound 3.16 µM, first compound 1 µM) of the same compound?
A: 53.2%

Q: And the viability, T/C (second compound 10 µM, first compound 0.00316 µM)?
A: 65.8%

Q: And the viability, T/C (second compound 10 µM, first compound 0.01 µM)?
A: 64.2%

Q: And the viability, T/C (second compound 10 µM, first compound 0.0316 µM)?
A: 72.8%

Q: What about the viability, T/C (second compound 10 µM, first compound 0.1 µM) of the same compound?
A: 53.8%

Q: And the viability, T/C (second compound 10 µM, first compound 0.316 µM)?
A: 54.4%

Q: And the viability, T/C (second compound 10 µM, first compound 1 µM)?
A: 72%

Q: Which results are given for `O=C(C=Cn1cnc(-c2cc(C(F)(F)F)cc(C(F)(F)F)c2)n1)NNc1cnccn1` + Cc1ccccc1N=Nc1ccc(NC(=O)c2ccnn2C)c(C)c1?
A: IC50 (second compound 0.1 µM): 443 nM; IC50 (second compound 0.316 µM): 442 nM; IC50 (second compound 1 µM): 535 nM; IC50 (second compound 3.16 µM): 274 nM; IC50 (second compound 10 µM): 268 nM; viability, T/C (second compound 0.1 µM, first compound 0.00949 µM): 76.4%; viability, T/C (second compound 0.1 µM, first compound 0.03 µM): 79.8%; viability, T/C (second compound 0.1 µM, first compound 0.0949 µM): 61.7%; viability, T/C (second compound 0.1 µM, first compound 0.3 µM): 54.5%; viability, T/C (second compound 0.1 µM, first compound 0.949 µM): 43.7%; viability, T/C (second compound 0.1 µM, first compound 3 µM): 34.4%; viability, T/C (second compound 0.316 µM, first compound 0.00949 µM): 72%; viability, T/C (second compound 0.316 µM, first compound 0.03 µM): 62.8%; viability, T/C (second compound 0.316 µM, first compound 0.0949 µM): 60.8%; viability, T/C (second compound 0.316 µM, first compound 0.3 µM): 49.8%; viability, T/C (second compound 0.316 µM, first compound 0.949 µM): 48.6%; viability, T/C (second compound 0.316 µM, first compound 3 µM): 36.7%; viability, T/C (second compound 1 µM, first compound 0.00949 µM): 70.5%; viability, T/C (second compound 1 µM, first compound 0.03 µM): 66.9%; viability, T/C (second compound 1 µM, first compound 0.0949 µM): 58%; viability, T/C (second compound 1 µM, first compound 0.3 µM): 44.7%; viability, T/C (second compound 1 µM, first compound 0.949 µM): 57.1%; viability, T/C (second compound 1 µM, first compound 3 µM): 40.3%; viability, T/C (second compound 3.16 µM, first compound 0.00949 µM): 64.1%; viability, T/C (second compound 3.16 µM, first compound 0.03 µM): 63.6%; viability, T/C (second compound 3.16 µM, first compound 0.0949 µM): 56.2%; viability, T/C (second compound 3.16 µM, first compound 0.3 µM): 46.3%; viability, T/C (second compound 3.16 µM, first compound 0.949 µM): 44.5%; viability, T/C (second compound 3.16 µM, first compound 3 µM): 35.4%; viability, T/C (second compound 10 µM, first compound 0.00949 µM): 65.5%; viability, T/C (second compound 10 µM, first compound 0.03 µM): 59.7%; viability, T/C (second compound 10 µM, first compound 0.0949 µM): 52.5%; viability, T/C (second compound 10 µM, first compound 0.3 µM): 51%; viability, T/C (second compound 10 µM, first compound 0.949 µM): 45.4%; viability, T/C (second compound 10 µM, first compound 3 µM): 39%
